Laboratory results published in US8758816B2, “Compositions comprising azelastine and methods of use thereof” (priority 2004, dated 2014).

Test system: patients with seasonal allergic rhinitis (SAR)
Assay: MP 428 study: individual symptom severity scores (runny nose, itchy nose, sneezing, congestion; 0-3 scale)
Format: in vivo, human
Details: Intent-to-Treat Population
Protocol: A two-week, randomized, double-blind study, which evaluated the effects of the co-administration of ASTELIN® (azelastine hydrochloride (HCl)) and FLONASE® (fluticasone propionate) compared to either product alone in patients with seasonal allergic rhinitis (SAR) was conducted during the 2006 Texas mountain cedar season. After a 5-day placebo lead-in period, 151 patients with moderate-to-severe allergic rhinitis symptoms were randomized to either: (1) (49 total patients) ASTELIN® (azelastine hydrochloride (HCl)) plus placebo saline nasal spray 2 sprays per nostril, 15 minutes apart, twice daily (AM & PM); (2) (50 total patients) FLONASE® (fluticasone propionate) plus placebo saline nasal spray, 2 sprays per nostril, 15 minutes apart, once daily (AM) and two sessions of placebo saline nasal spray, 2 sprays per nostril, 15 minutes apart (PM); or (3) (52 total patients) the co-administration of ASTELIN® (azelastine hydrochloride (HCl)) 2 sprays per nostril plus FLONASE® (fluticasone propionate) 2 sprays per nostril (AM), 15 minutes apart, and ASTELIN® (azelastine hydrochloride (HCl)) 2 sprays per nostril plus placebo saline nasal spray, 15 minutes apart, (PM) for a 2-week double-blind treatment period.
The primary efficacy variable was the change from baseline in the Total Nasal Symptom Score (TNSS), which comprised sneezing, itchy nose, runny nose, and nasal congestion (individual symptoms scores were assigned a value between 0 and 3, where 0=no symptoms and 3=severe symptoms). This study was not statistically designed to assess the differences between ASTELIN® and FLONASE®.
The results of the clinical trial are summarized and presented in Appendix A hereinbelow and in FIGS. 1-6. […] FIGS. 2-5 show the mean improvement in severity score (0-3 scale) from baseline for the symptoms of runny nose, itchy nose, sneezing and congestion, respectively.

CCC(=O)O[C@]1(C(=O)SCF)[C@H](C)C[C@H]2[C@@H]3C[C@H](F)C4=CC(=O)C=C[C@]4(C)[C@@]3(F)[C@@H](O)C[C@@]21C [Fluticasone, fluticasone propionate]
Change from Baseline in AM and PM Combined Nasal Symptom Score: Congestion, LS Mean (Day 2): −0.59
Change from Baseline in AM and PM Combined Nasal Symptom Score: Congestion, Mean (Day 2): −0.65
Change from Baseline in AM and PM Combined Nasal Symptom Score: Congestion, Median (Day 2): −0.30
Change from Baseline in AM and PM Combined Nasal Symptom Score: Itchy Nose, LS Mean (Day 2): −0.61
Change from Baseline in AM and PM Combined Nasal Symptom Score: Itchy Nose, Mean (Day 2): −0.66
Change from Baseline in AM and PM Combined Nasal Symptom Score: Itchy Nose, Median (Day 2): −0.40
Change from Baseline in AM and PM Combined Nasal Symptom Score: Runny Nose, LS Mean (Day 2): −0.86
Change from Baseline in AM and PM Combined Nasal Symptom Score: Runny Nose, Mean (Day 2): −0.90
Change from Baseline in AM and PM Combined Nasal Symptom Score: Runny Nose, Median (Day 2): −1.00
Change from Baseline in AM and PM Combined Nasal Symptom Score: Sneezing, LS Mean (Day 2): −1.06
Change from Baseline in AM and PM Combined Nasal Symptom Score: Sneezing, Mean (Day 2): −1.03
Change from Baseline in AM and PM Combined Nasal Symptom Score: Sneezing, Median (Day 2): −1.00
Percent Change from Baseline in AM and PM Combined Nasal Symptom Score: Congestion, LS Mean (Day 2): −10.84%
Percent Change from Baseline in AM and PM Combined Nasal Symptom Score: Congestion, Mean (Day 2): −11.97%
Percent Change from Baseline in AM and PM Combined Nasal Symptom Score: Congestion, Median (Day 2): −5.66%
Percent Change from Baseline in AM and PM Combined Nasal Symptom Score: Itchy Nose, LS Mean (Day 2): −12.72%
Percent Change from Baseline in AM and PM Combined Nasal Symptom Score: Itchy Nose, Mean (Day 2): −14.27%
Percent Change from Baseline in AM and PM Combined Nasal Symptom Score: Itchy Nose, Median (Day 2): −8.39%
Percent Change from Baseline in AM and PM Combined Nasal Symptom Score: Runny Nose, LS Mean (Day 2): −12.11%
Percent Change from Baseline in AM and PM Combined Nasal Symptom Score: Runny Nose, Mean (Day 2): −12.95%
Percent Change from Baseline in AM and PM Combined Nasal Symptom Score: Runny Nose, Median (Day 2): −16.67%
Percent Change from Baseline in AM and PM Combined Nasal Symptom Score: Sneezing, LS Mean (Day 2): −22.64%
Percent Change from Baseline in AM and PM Combined Nasal Symptom Score: Sneezing, Mean (Day 2): −22.69%
Percent Change from Baseline in AM and PM Combined Nasal Symptom Score: Sneezing, Median (Day 2): −16.67%
Change from Baseline in AM and PM Combined Nasal Symptom Score: Congestion, LS Mean (Day 3): −0.81
Change from Baseline in AM and PM Combined Nasal Symptom Score: Congestion, Mean (Day 3): −0.90
Change from Baseline in AM and PM Combined Nasal Symptom Score: Congestion, Median (Day 3): −0.67
Change from Baseline in AM and PM Combined Nasal Symptom Score: Itchy Nose, LS Mean (Day 3): −0.99
Change from Baseline in AM and PM Combined Nasal Symptom Score: Itchy Nose, Mean (Day 3): −0.97
Change from Baseline in AM and PM Combined Nasal Symptom Score: Itchy Nose, Median (Day 3): −0.67
Change from Baseline in AM and PM Combined Nasal Symptom Score: Runny Nose, LS Mean (Day 3): −0.96
Change from Baseline in AM and PM Combined Nasal Symptom Score: Runny Nose, Mean (Day 3): −1.05
Change from Baseline in AM and PM Combined Nasal Symptom Score: Runny Nose, Median (Day 3): −0.80
Change from Baseline in AM and PM Combined Nasal Symptom Score: Sneezing, LS Mean (Day 3): −1.29
Change from Baseline in AM and PM Combined Nasal Symptom Score: Sneezing, Mean (Day 3): −1.21
Change from Baseline in AM and PM Combined Nasal Symptom Score: Sneezing, Median (Day 3): −1.00
Percent Change from Baseline in AM and PM Combined Nasal Symptom Score: Congestion, LS Mean (Day 3): −15.34%
Percent Change from Baseline in AM and PM Combined Nasal Symptom Score: Congestion, Mean (Day 3): −16.63%
Percent Change from Baseline in AM and PM Combined Nasal Symptom Score: Congestion, Median (Day 3): −11.76%
Percent Change from Baseline in AM and PM Combined Nasal Symptom Score: Itchy Nose, LS Mean (Day 3): −22.88%
Percent Change from Baseline in AM and PM Combined Nasal Symptom Score: Itchy Nose, Mean (Day 3): −22.41%
Percent Change from Baseline in AM and PM Combined Nasal Symptom Score: Itchy Nose, Median (Day 3): −15.32%
Percent Change from Baseline in AM and PM Combined Nasal Symptom Score: Runny Nose, LS Mean (Day 3): −17.15%
Percent Change from Baseline in AM and PM Combined Nasal Symptom Score: Runny Nose, Mean (Day 3): −18.81%
Percent Change from Baseline in AM and PM Combined Nasal Symptom Score: Runny Nose, Median (Day 3): −13.79%
Percent Change from Baseline in AM and PM Combined Nasal Symptom Score: Sneezing, LS Mean (Day 3): −29.62%
Percent Change from Baseline in AM and PM Combined Nasal Symptom Score: Sneezing, Mean (Day 3): −28.44%
Percent Change from Baseline in AM and PM Combined Nasal Symptom Score: Sneezing, Median (Day 3): −30.09%
Change from Baseline in AM and PM Combined Nasal Symptom Score: Congestion, LS Mean (Day 4): −1.00
Change from Baseline in AM and PM Combined Nasal Symptom Score: Congestion, Mean (Day 4): −1.06
Change from Baseline in AM and PM Combined Nasal Symptom Score: Congestion, Median (Day 4): −1.00
Change from Baseline in AM and PM Combined Nasal Symptom Score: Itchy Nose, LS Mean (Day 4): −0.98
Change from Baseline in AM and PM Combined Nasal Symptom Score: Itchy Nose, Mean (Day 4): −0.97
Change from Baseline in AM and PM Combined Nasal Symptom Score: Itchy Nose, Median (Day 4): −0.90
Change from Baseline in AM and PM Combined Nasal Symptom Score: Runny Nose, LS Mean (Day 4): −1.12
Change from Baseline in AM and PM Combined Nasal Symptom Score: Runny Nose, Mean (Day 4): −1.17
Change from Baseline in AM and PM Combined Nasal Symptom Score: Runny Nose, Median (Day 4): −1.15
Change from Baseline in AM and PM Combined Nasal Symptom Score: Sneezing, LS Mean (Day 4): −1.42
Change from Baseline in AM and PM Combined Nasal Symptom Score: Sneezing, Mean (Day 4): −1.33
Change from Baseline in AM and PM Combined Nasal Symptom Score: Sneezing, Median (Day 4): −1.10
Percent Change from Baseline in AM and PM Combined Nasal Symptom Score: Congestion, LS Mean (Day 4): −18.75%
Percent Change from Baseline in AM and PM Combined Nasal Symptom Score: Congestion, Mean (Day 4): −19.51%
Percent Change from Baseline in AM and PM Combined Nasal Symptom Score: Congestion, Median (Day 4): −16.67%
Percent Change from Baseline in AM and PM Combined Nasal Symptom Score: Itchy Nose, LS Mean (Day 4): −20.59%
Percent Change from Baseline in AM and PM Combined Nasal Symptom Score: Itchy Nose, Mean (Day 4): −20.31%
Percent Change from Baseline in AM and PM Combined Nasal Symptom Score: Itchy Nose, Median (Day 4): −16.67%
Percent Change from Baseline in AM and PM Combined Nasal Symptom Score: Runny Nose, LS Mean (Day 4): −17.17%
Percent Change from Baseline in AM and PM Combined Nasal Symptom Score: Runny Nose, Mean (Day 4): −18.21%
Percent Change from Baseline in AM and PM Combined Nasal Symptom Score: Runny Nose, Median (Day 4): −22.33%
Percent Change from Baseline in AM and PM Combined Nasal Symptom Score: Sneezing, LS Mean (Day 4): −31.80%
Percent Change from Baseline in AM and PM Combined Nasal Symptom Score: Sneezing, Mean (Day 4): −30.67%
Percent Change from Baseline in AM and PM Combined Nasal Symptom Score: Sneezing, Median (Day 4): −27.36%
Change from Baseline in AM and PM Combined Nasal Symptom Score: Congestion, LS Mean (Day 5): −1.00
Change from Baseline in AM and PM Combined Nasal Symptom Score: Congestion, Mean (Day 5): −1.06
Change from Baseline in AM and PM Combined Nasal Symptom Score: Congestion, Median (Day 5): −0.83
Change from Baseline in AM and PM Combined Nasal Symptom Score: Itchy Nose, LS Mean (Day 5): −1.16
Change from Baseline in AM and PM Combined Nasal Symptom Score: Itchy Nose, Mean (Day 5): −1.15
Change from Baseline in AM and PM Combined Nasal Symptom Score: Itchy Nose, Median (Day 5): −1.00
Change from Baseline in AM and PM Combined Nasal Symptom Score: Runny Nose, LS Mean (Day 5): −1.42
Change from Baseline in AM and PM Combined Nasal Symptom Score: Runny Nose, Mean (Day 5): −1.43
Change from Baseline in AM and PM Combined Nasal Symptom Score: Runny Nose, Median (Day 5): −1.05
Change from Baseline in AM and PM Combined Nasal Symptom Score: Sneezing, LS Mean (Day 5): −1.61
Change from Baseline in AM and PM Combined Nasal Symptom Score: Sneezing, Mean (Day 5): −1.52
Change from Baseline in AM and PM Combined Nasal Symptom Score: Sneezing, Median (Day 5): −1.33
